Test results reported in patent US7812025B2, “Brain/neuronal cell-protecting agent and therapeutic agent for sleep disorder” (Takeda Pharmaceutical Company Limited, priority 2005, dated 2010).

target: T1, Human FAAH (Homo sapiens, UniProt O00519); assay: Measurement of FAAH inhibitory activity (enzyme fraction from CHO-K1/human FAAH, substrate anandamide [ethanolamine 1-3H]); type: biochemical; conditions: 1 μM test compound; 25 nM anandamide [ethanolamine 1-3H]; 60 ng enzyme fraction; 37° C. for 30 minutes; pH 9.0; read-out: Human FAAH Inhibition Rate at 1 μM (%)
T1 construct: made in house; 10000 g pellet suspended in M-PER
T1 sequence (O00519 1-579): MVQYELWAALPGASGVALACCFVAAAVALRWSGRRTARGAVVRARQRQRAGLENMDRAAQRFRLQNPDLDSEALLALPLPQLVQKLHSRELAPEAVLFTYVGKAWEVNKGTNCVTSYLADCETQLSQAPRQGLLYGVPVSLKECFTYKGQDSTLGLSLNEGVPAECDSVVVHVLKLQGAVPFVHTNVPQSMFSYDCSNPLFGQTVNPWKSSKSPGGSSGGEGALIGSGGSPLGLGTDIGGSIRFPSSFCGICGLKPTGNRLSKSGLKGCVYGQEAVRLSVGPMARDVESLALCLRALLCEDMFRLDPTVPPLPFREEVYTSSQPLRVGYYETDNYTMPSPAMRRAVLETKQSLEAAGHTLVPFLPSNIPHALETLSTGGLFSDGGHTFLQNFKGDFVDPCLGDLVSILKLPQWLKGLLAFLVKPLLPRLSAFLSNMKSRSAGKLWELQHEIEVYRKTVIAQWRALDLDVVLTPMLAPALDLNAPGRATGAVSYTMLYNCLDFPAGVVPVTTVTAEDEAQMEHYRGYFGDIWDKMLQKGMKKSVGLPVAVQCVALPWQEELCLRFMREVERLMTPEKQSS
Protocol: Measurement of FAAH Inhibitory Activity
(1) Preparation of Enzyme Fraction
The FAAH gene was cloned by PCR. That is, a human brain library was used as a cDNA library, 5′-[…]-3′ [SEQ ID NO:1] and 5′-[…]-3′ [SEQ ID NO:2] were used as a primer set, and KOD DNA polymerase (Toyobo Co., Ltd.) was used as a DNA polymerase. One cycle of the reaction comprises 95° C. for 30 sec, 55° C. for 30 sec and 72° C. for 2 min, and 45 cycles of the reaction was carried out to obtain an amplified fragment. The amplified fragment was cleaved with restriction enzymes EcoRI and SalI, and then was inserted into a pMSRα vector which had been cleaved with the same restriction enzymes EcoRI and SalI to obtain a pMSRα-human FAAH. A cell line CHO-K1 and the above-obtained plasmid were subjected to a method known per se to prepare the cell line CHO-K1/human FAAH in which human FAAH was stably expressed. The CHO-K1/human FAAH was cultured in a CO2 incubator at 37° C., using a medium (Ham's F-12 medium supplemented with final concentration 10% of fetal bovine serum (FBS) and final concentration 800 μg/ml of G418), and then the cells were harvested. After washing with PBS, the cells were suspended in a buffer (10 mM Tris, 1 mM EDTA and 10 mM MgCl2, all at final concentrations) and disrupted with a Polytron homogenizer. After centrifugation at 900 g, the supernatant was recovered and further centrifuged at 10000 g. A pellet obtained therefrom was suspended in M-PER (Catalog No. 78501; PIERCE) to give an enzyme fraction.
Using a white walled 96-well plate (Coster Corp.), the test compound at various concentrations, 60 ng of the enzyme fraction and the substrate anandamide [ethanolamine 1-^3H] (final concentration 25 nM) were reacted in 50 μl of a reaction buffer (125 mM Tris-HCl (pH 9.0), 1 mM EDTA, 0.4 mM HEPES, 0.2% glycerol and 0.02% Triton X-100, all at final concentrations) at 37° C. for 30 minutes. The reaction mixture was transferred to a 96-well MultiScreen-HA filter plate (Millipore Corp.) and then was left to stand overnight at room temperature in order to allow the unreacted substrate to be adsorbed on the filter. The plate was washed with PBS using a MultiScreen Vacuum Manifold (Millipore Corp.) and dried. To each well, 50 μl of liquid scintillation cocktail was added and stirred, and then counting was performed with a TopCount (Perkin-Elmer Corp.). The count of a sample containing a solvent instead of the test compound was taken as 0%, and the count at zero time was taken as 100%, to calculate the inhibitory activity of the compound.

| SMILES | inhibition at 1 µM |
| --- | --- |
| O=C(Nc1cccnc1)N1CCN(c2cccc(-c3ccoc3)c2)CC1 [Example 13, 4-[3-(3-Furyl)phenyl]-N-pyridin-3-ylpiperazine-1-carboxamide] | 104% |
| Cc1noc(NC(=O)N2CCN(c3cccc(-c4ccccc4)c3)CC2)c1C [Example 2, 4-Biphenyl-3-yl-N-(3,4-dimethylisoxazol-5-yl)piperazine-1-carboxamide] | 104% |
| Cc1noc(NC(=O)N2CCN(c3ccc(-c4ccccc4)cn3)CC2)c1C [Example 7, N-(3,4-Dimethylisoxazol-5-yl)-4-(5-phenylpyridin-2-yl)piperazine-1-carboxamide] | 102% |
| Cc1noc(NC(=O)N2CCN(c3cc(-c4ccccc4)ccn3)CC2)c1C [Example 5, N-(3,4-Dimethylisoxazol-5-yl)-4-(4-phenylpyridin-2-yl)piperazine-1-carboxamide] | 94% |
| Cc1noc(NC(=O)N2CCN(c3cccc(-c4ccsc4)c3)CC2)c1C [Example 11, N-(3,4-Dimethylisoxazol-5-yl)-4-[3-(3-thienyl)phenyl]piperazine-1-carboxamide] | 100% |
| CC(=O)Nc1ccc(NC(=O)N2CCN(c3cccc(-c4ccccc4)c3)CC2)cn1 [Example 3, N-[6-(Acetylamino)pyridin-3-yl]-4-biphenyl-3-ylpiperazine-1-carboxamide] | 101% |
| O=C(Nc1cccnc1)N1CCN(c2cc(-c3ccccc3)ccn2)CC1 [Example 4, 4-(4-Phenylpyridin-2-yl)-N-pyridin-3-ylpiperazine-1-carboxamide] | 74% |
| O=C(Nc1cccnc1)N1CCN(c2cccc(-c3ccsc3)c2)CC1 [Example 12, N-Pyridin-3-yl-4-[3-(3-thienyl)phenyl]piperazine-1-carboxamide] | 104% |
| O=C(Nc1cccnn1)N1CCN(c2cccc(-c3ccccc3)c2)CC1 [Example 9, 4-Biphenyl-3-yl-N-pyridazin-3-ylpiperazine-1-carboxamide] | 105% |
| O=C(Nc1cccnc1)N1CCN(c2ccc(-c3ccccc3)cn2)CC1 [Example 8, 4-(5-Phenylpyridin-2-yl)-N-pyridin-3-ylpiperazine-1-carboxamide] | 98% |
| Cc1noc(NC(=O)N2CCN(c3ccc(-c4ccccc4)cc3)CC2)c1C [Example 15, 4-Biphenyl-4-yl-N-(3,4-dimethylisoxazol-5-yl)piperazine-1-carboxamide] | 102% |
| CC(=O)Nc1ccc(NC(=O)N2CCN(c3cccc(-c4ccsc4)c3)CC2)cc1 [Example 10, N-[4-(Acetylamino)phenyl]-4-[3-(3-thienyl)phenyl]piperazine-1-carboxamide] | 108% |
| O=C(Nc1cccnn1)N1CCN(c2cc(-c3ccccc3)ccn2)CC1 [Example 6, 4-(4-Phenylpyridin-2-yl)-N-pyridazin-3-ylpiperazine-1-carboxamide] | 91% |
| O=C(Nc1cccnc1)N1CCN(c2ccc(-c3ccccc3)cc2)CC1 [Example 14, 4-Biphenyl-4-yl-N-pyridin-3-ylpiperazine-1-carboxamide] | 101% |
| O=C(Nc1cccnc1)N1CCN(c2cccc(-c3ccccc3)c2)CC1 [Example 1, 4-Biphenyl-3-yl-N-pyridin-3-ylpiperazine-1-carboxamide] | 103% |
